The values below come from patent US11555179B2, “Identification of subpopulations of cardiomyocytes” (The University of Hong Kong, priority 2019, dated 2023).

For series [1], the system named is CD172A^+/CD36^+ hESC-CMs. As to the kind of experiment: Mitochondrial membrane potential (TMRE) with oleic acid supplementation. The format is cell-based, human. To be noted: nutrient-deficient media lacking fatty acids, plus oleic acid, FIG. 3B. As for the experimental part:
(§1) FIG. 3A is a bar graph showing the uptake of fatty acid (FA) by C[…]^+/CD36^+ (black) and C[…]^+/CD36^- (white) hESC-CMs. The FA uptake assay was performed using a BODIPY-labeled C16 palmitate analog (n=6). FIG. 3B is a bar graph showing the relative levels of mitochondrial membrane potential Δψm in C[…]^+/CD36^+ and C[…]^+/CD36^- hESC-CMs cultured in the absence (black) and presence (gray) of oleic acid (n=5). […] In addition to enhanced mitochondrial output, adult CMs were characterized by their preference for fatty acid as fuel for energy production. In CMs, CD36 functions as a fatty acid translocase to facilitate the uptake of long-chain fatty acids such as palmitic and oleic acids, thus increased level of this protein is expected to enhance fatty acid entry into cells. […] Additional experiments were performed to test whether increased fatty acid uptake led to increased metabolic output. When cultured in nutrient-deficient media lacking fatty acids, C[…]^+/CD36^+ and C[…]^+/CD36^- CMs had similar Δψm.

Series [2] relates to CD172A^+/CD36^− hESC-CMs. The description is as above. The class given is cell-based, human. To be noted: nutrient-deficient media lacking fatty acids, plus oleic acid, FIG. 3B. As to the method: as §1
Series [3] deals with CD172A^+/CD36^+ hESC-CMs. Conditions: 100 μM hydrogen peroxide for 30 min. As to the method:
(§2) FIGS. 4A-4D are bar graphs showing the relative levels of mitochondrial superoxide (A), mitochondrial membrane potential Δψm (B), nuclear condensation (C), and cell viability (D) in CD172A^+/CD36^+/−, CD172A^+/CD36^+, and CD172A^+/CD36^− hECS-CMs after exposure to 100 μM hydrogen peroxide for 30 min. The relative levels of mitochondrial superoxide, mitochondrial membrane potential, nuclear condensation, and cell viability were determined using the MitoSOX™ red dye (n=5), TMRE staining (n=5, calibrated by mitochondrial mass based on the result of MTG staining), Hoechst staining (n=5), and PrestoBlue® staining (n=9), respectively. *p<0.05, **p<0.01, ***p<0.001.
(§3) The responses of mitochondrial function to oxidative stress were examined in subpopulations of hESC-CMs.

The subject of series [4] is CD172A^+/CD36^+/− hESC-CMs. Conditions: 100 μM hydrogen peroxide for 30 min. As to the method:
as §2, §3

The test system of series [5] is CD172A^+/CD36^− hESC-CMs. Conditions: 100 μM hydrogen peroxide for 30 min. As for the experimental part:
as §2, §3

Series [6] concerns CD36^+ hESC-CMs. As to the kind of experiment: Doxorubicin-induced cardiotoxicity (XTT viability, TMRE/MTG Δψm). The format is cell-based, human. Conditions: for effect on cell viability upon dox treatment (XTT): pre-treatment (NAC 1 mM, 1 hr), FIGS. 5I-K show mixed, CD36^+ and CD36^− hESC-CMs. As to the method:
FIGS. 5A and 5B are bar graphs showing the normalized levels of cell viability (A) and mitochondrial membrane potential Δψm (B) of mixed (unsorted) hESC-CMs, CD36^+ hESC-CMs, and CD36^− hESC-CMs after exposure to doxorubicin (dox). The hESC-CMs were treated with 1 mM dox for 24 hrs. Cell viability and mitochondrial membrane potential Δψm were determined by the XTT and TMRE/MTG assays (n=9 and 7), respectively, and normalized to untreated hESC-CMs.
(C) and (D): viability and Δψm for unsorted hESC-CMs; (E) and (F): viability and Δψm for CD36^+ hESC-CMs; (G) and (H): viability and Δψm for CD36^− hESC-CMs. The cells in the “Dox” groups were treated with 1 mM dox for 24 hrs; the cells in the “Dox+DRZ” groups were pre-treated with […] DRZ for 1 hr, followed by co-treatment with 1 mM dox for 24 hrs. Cell viability and mitochondrial membrane potential Δψm were determined by the XTT and TMRE/MTG assays (n=7 and 9), respectively, and normalized to untreated hESC-CMs (i.e., the “Control” groups). *p<0.05, **p<0.01, ***p<0.001.
The cells in the “Dox” groups were treated with 1 mM dox for 24 hrs; the cells in the “Dox+NAC” groups were pre-treated with 1 mM NAC for 1 hr, followed by co-treatment with 1 mM dox for 24 hrs. Cell viability was determined by the XTT assay (n=4) and normalized to untreated cells (i.e., the “Control” groups).

Series [7] relates to hPSC-CMs. Conditions: unsorted hPSC-CMs as currently utilized; cited from earlier work.
For series [8] the following is noted: dexrazoxane-treated pediatric patients, two randomized studies; cited from earlier work.
The conditions of series [9]: doses exceeding 550 mg/m^2; cited from earlier work.
Series [10] has as its system mouse models of DCT. Conditions: in vivo; cited from earlier work.
For series [11] the following is noted: in vivo; cited from earlier work.
The mark [12] stands for this setting: then co-treatment with 1 mM dox 24 hrs.

Take `CCCCCCCC/C=C\CCCCCCCC(=O)O` [oleic acid]: the “increase in magnitude of Δψm on supplementation with oleic acid” value in [1] was 43.0%; in [2], 22.9%.
On to `OO` [hydrogen peroxide], for which the figures for the “mitochondrial superoxide (MitoSOX red dye)” value in [3] (FIG. 4A), in series [4] (FIG. 4A) and in series [5] (FIG. 4A) were 3.5±0.3 fold, 2.2±0.4 fold and 1.7±1.2 fold, respectively. The “relative mitochondrial membrane potential Δψm (TMRE, calibrated by MTG)” value in [3] (FIG. 4B) is on record as 0.17±0.03; in series [4] (FIG. 4B) it was 0.30±0.03; in series [5] (FIG. 4B), 0.35±0.04. In addition, the “nuclear condensation (Hoechst staining)” value was 73±8% in series [3] (FIG. 4C), 46±15% in series [4] (FIG. 4C) and 32%±11 in [5] (FIG. 4C).
`C[C@@H](CN1CC(=O)NC(=O)C1)N1CC(=O)NC(=O)C1` [dexrazoxane]: in series [6] (200 mM DRZ pre-treatment 1 hr, then co-treatment with 1 mM dox 24 hrs, CD36^+ hESC-CMs, FIGS. 5E, 5F), the “protective effect against DCT (viability and Δψm)” value is on record as “responded to the protective effect”. For the same compound, the “protection of hPSC-CMs against DCT” value in [7] is “failed to protect”. In series [8], the “incidence of second primary malignancies (myelodysplastic syndrome and acute myeloid leukemia)” value was “threefold increase”.
Regarding vitamin E, the “effect on cell viability upon dox treatment (XTT)” value in [6] (setting [12]) is reported as “did not increase cell viability”.
With `COc1cccc2c1C(=O)c1c(O)c3c(c(O)c1C2=O)C[C@@](O)(C(=O)CO)C[C@@H]3O[C@H]1C[C@H](N)[C@H](O)[C@H](C)O1` [dox, Doxorubicin], the “cell viability upon dox treatment (XTT)” value in series [6] (1 mM dox for 24 hrs, CD36^+ hESC-CMs compared to mixed (unsorted) or CD36^− CMs, FIG. 5A) was “more severe decrease”. Besides, the “mitochondrial membrane potential (Δψm) upon dox treatment (TMRE/MTG)” value in series [6] (1 mM dox for 24 hrs, CD36^+ hESC-CMs compared to mixed (unsorted) or CD36^− CMs, FIG. 5B) is listed as “more severe decrease”. Also, in [6] (CD36^+ hESC-CMs compared to mixed (unsorted) or CD36^− CMs), the “onset of dox-induced cell degeneration” value was “accelerated onset”. Moreover, the “incidence of congestive heart failure” value in [9] was “exceeds 30%”.
For `CC(=O)N[C@@H](CS)C(=O)O` [N-acetylcysteine], the “effect on cell viability upon dox treatment (XTT)” value in series [6] (setting [12]) is “did not increase cell viability”. In addition, in series [7], the “protection of hPSC-CMs against DCT” value is given as “rescued”. Also, the “efficacy in mouse models of DCT” value in series [10] is “effective”. For the same compound, the “outcome in clinical trials (DCT)” value in [11] was “unsuccessful”.
